These results are taken from ChEMBL document CHEMBL1141959, “Metalloform-selective inhibition: synthesis and structure-activity analysis of Mn(II)-form-selective inhibitors of Escherichia coli methionine aminopeptidase” (Bioorg Med Chem Lett, 2005).

Structures are written as SMILES.

Assay [1] concerns the target T1, Methionine aminopeptidase (Escherichia coli K-12, UniProt P0AE18).
T1 sequence (P0AE18 whole entry): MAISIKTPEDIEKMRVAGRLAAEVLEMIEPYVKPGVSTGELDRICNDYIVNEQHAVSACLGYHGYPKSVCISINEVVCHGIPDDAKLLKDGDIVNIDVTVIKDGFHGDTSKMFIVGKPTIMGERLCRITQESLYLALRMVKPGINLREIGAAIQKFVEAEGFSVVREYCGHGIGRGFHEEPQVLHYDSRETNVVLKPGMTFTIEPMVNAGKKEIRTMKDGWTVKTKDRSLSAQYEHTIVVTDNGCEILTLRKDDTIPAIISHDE
Description: Inhibitory activity against Co(II) form of Escherichia coli MetAP.

In assay [2] the target is T1, Methionine aminopeptidase. Nature of the assay: Inhibitory activity against Mn(II) form of Escherichia coli MetAP.
Assay [3] concerns the target T1, Methionine aminopeptidase. Nature of the assay: Inhibitory activity against Ni(II) form of Escherichia coli MetAP.
Assay [4] deals with T1, Methionine aminopeptidase. Nature of the assay: Inhibitory activity against Fe(II) form of Escherichia coli MetAP.

In general, IC50 refers to the concentration needed to halve the response being measured. High values mean weaker potency, low ones greater potency. For the molecule `CCOc1ccccc1-c1ccc(C(=O)O)o1`, the IC50 in assay [1] was 147 µM; in assay [2] it was 1.13 µM; in assay [3], more than 200 µM; in assay [4] it was more than 200 µM.
Take `C=CCCOc1ccccc1-c1ccc(C(=O)O)o1`: the half-maximal inhibitory concentration (IC50) in assay [1] turned out to be 93.5 µM; in assay [2], 3.65 µM; in assay [3], 113 µM; in assay [4], 111 µM.
In the case of `O=C(O)c1ccc(-c2cccc(Cl)c2)o1`, the IC50 is 199 µM in assay [1], 11.7 µM in assay [2], more than 200 µM in assay [3] and more than 200 µM in assay [4].
In the case of `O=C(O)c1ccc(-c2ccc(Cl)cc2)o1`, the IC50 is 180 µM in assay [1], 12.1 µM in assay [2], more than 200 µM in assay [3] and more than 200 µM in assay [4].
Consider `O=C(O)c1ccc(Cc2ccccc2Cl)o1`, for which the 50% inhibitory concentration (IC50) in assay [1] was 158 µM; in assay [2], 1.22 µM; in assay [3], 191 µM; in assay [4] it was 199 µM.
For `O=C(O)c1ccc(-c2ccccc2C(=O)O)o1`, the half-inhibitory concentration (IC50) was more than 200 µM in assay [1], 23.5 µM in assay [2], more than 200 µM in assay [3] and more than 200 µM in assay [4].
Take `O=C(O)c1ccc(-c2ccccc2CO)o1`: the 50% inhibitory concentration (IC50) in assay [1] was 189 µM; in assay [2] it was 10 µM; in assay [3], 190 µM; in assay [4] it was more than 200 µM.
Take `O=C(O)c1ccc(-c2cc([N+](=O)[O-])ccc2F)o1`: the IC50 turned out to be 157 µM in assay [1], 14.9 µM in assay [2], 193 µM in assay [3] and 199 µM in assay [4].
`O=C(O)c1ccc(-c2ccccc2CF)o1`: the IC50 in assay [1] was found to be 55.4 µM; in assay [2], 0.893 µM; in assay [3], 68 µM; in assay [4], 85.2 µM.
For the molecule `N#CCc1ccc(-c2ccccc2Cl)o1`, the half-inhibitory concentration (IC50) turned out to be 57.3 µM in assay [1], 47.6 µM in assay [2], 56.3 µM in assay [3] and 97.7 µM in assay [4].
Consider `OCc1ccc(-c2ccccc2Cl)o1`, for which the IC50 was 84.2 µM in assay [1], 28.1 µM in assay [2], 55 µM in assay [3] and more than 200 µM in assay [4].
Consider `O=C(NO)c1ccc(-c2ccccc2Cl)o1`, for which the IC50 in assay [1] is 4.61 µM; in assay [2], 0.469 µM; in assay [3], 5.9 µM; in assay [4] it was 0.793 µM.
Regarding `Cc1cccc(-c2ccc(C(=O)O)o2)c1Cl`, the concentration for half-maximal inhibition (IC50) was 187 µM in assay [1], 1.71 µM in assay [2], 188 µM in assay [3] and 196 µM in assay [4].
Take `O=C(O)c1ccc(-c2ccccc2C(F)(F)F)o1`: the IC50 stood at 101 µM in assay [1], 0.29 µM in assay [2], 165 µM in assay [3] and 158 µM in assay [4].
As to `O=C(O)c1ccc(-c2ccccc2)o1`, the IC50 in assay [1] was 188 µM; in assay [2] it was 16.3 µM; in assay [3], 195 µM; in assay [4], more than 200 µM.
With `COCCOc1ccccc1-c1ccc(C(=O)O)o1`, the half-maximal inhibitory concentration (IC50) in assay [1] was found to be 103 µM; in assay [2] it was 9.45 µM; in assay [3], 163 µM; in assay [4], 169 µM.
For the molecule `C#CCOc1ccccc1-c1ccc(C(=O)O)o1`, the IC50 in assay [1] was 98.9 µM; in assay [2], 4.71 µM; in assay [3], 171 µM; in assay [4] it was 193 µM.
As for `COC(=O)c1ccc(-c2ccccc2Cl)o1`, the IC50 is more than 200 µM in assay [1], 166 µM in assay [2], more than 200 µM in assay [3] and more than 200 µM in assay [4].
Turning to `NNC(=O)c1ccc(-c2ccccc2Cl)o1`, the figures for the IC50 in assay [1], in assay [3] and in assay [4] were 77.1 µM, 5.78 µM and 58 µM, respectively.
Regarding `CONC(=O)c1ccc(-c2ccccc2Cl)o1`, the 50% inhibitory concentration (IC50) turned out to be 57.5 µM in assay [1], 40 µM in assay [2], 51.2 µM in assay [3] and 178 µM in assay [4].
For `COc1ccc([N+](=O)[O-])cc1-c1ccc(C(=O)O)o1`, the half-maximal inhibitory concentration (IC50) in assay [1] amounted to 24.1 µM; in assay [2], 0.642 µM; in assay [3], 34.5 µM; in assay [4], 36.2 µM.
As to `O=Cc1ccccc1-c1ccc(C(=O)O)o1`, the 50% inhibitory concentration (IC50) in assay [1] was determined as 82.6 µM; in assay [2], 7.17 µM; in assay [3], 67.5 µM; in assay [4] it was 69.2 µM.
Consider `O=C(O)c1ccc(-c2ccccc2O)o1`, for which the IC50 was 127 µM in assay [1], 6.92 µM in assay [2], 153 µM in assay [3] and 190 µM in assay [4].
On the same counts, the results for `O=C(NO)c1ccc(Cc2ccccc2Cl)o1` are 119 µM, 9.84 µM, 107 µM and 122 µM.
Turning to `Nc1ccccc1-c1ccc(C(=O)O)o1`, the IC50 in assay [1] is 56.6 µM; in assay [2] it was 12.5 µM; in assay [3], 94.5 µM; in assay [4] it was 95.8 µM.
On the same counts, the results for `NC(=O)c1ccc(-c2ccccc2Cl)o1` are 71.4 µM, 15.9 µM, 137 µM and more than 200 µM.
The corresponding values for `O=C(O)c1ccc(Cc2ccc(Cl)cc2)o1` are 90.5 µM, 44.6 µM, 89.8 µM and 138 µM.
Regarding `O=C(O)c1ccc(-c2cc([N+](=O)[O-])ccc2Cl)o1`, the IC50 in assay [1] is 44.3 µM; in assay [2], 1.32 µM; in assay [3], 38.4 µM; in assay [4] it was 31.1 µM.
The corresponding values for `Cc1cc([N+](=O)[O-])ccc1-c1ccc(C(=O)O)o1` are 59.5 µM, 1.11 µM, 28.5 µM and 150 µM.
On to `O=C(O)Cc1ccc(Cc2ccccc2Cl)o1`, for which the half-maximal inhibitory concentration (IC50) came out at 77.3 µM in assay [1], 0.784 µM in assay [2], 117 µM in assay [3] and 177 µM in assay [4].
On the same counts, the results for `O=C(O)c1ccc(Cc2ccccc2)o1` are 42.5 µM, 33.5 µM, 67.5 µM and 33.7 µM.
For `O=C(O)c1ccc(-c2ccccc2F)o1`, the IC50 is more than 200 µM in assay [1], 13.6 µM in assay [2], more than 200 µM in assay [3] and more than 200 µM in assay [4].
Turning to `COC(=O)c1ccccc1-c1ccc(C(=O)O)o1`, the IC50 in assay [1] is 160 µM; in assay [2], 3.47 µM; in assay [3], 194 µM; in assay [4] it was more than 200 µM.
Regarding `O=C(O)c1ccc(-c2ccccc2[N+](=O)[O-])o1`, the 50% inhibitory concentration (IC50) in assay [1] turned out to be 120 µM; in assay [2], 1.08 µM; in assay [3], 175 µM; in assay [4], 178 µM.
